# “Also recorded” adds a separate entry of the source.
# Tests used:
# MMP-9 activity = MMP-9 activity by gelatin zymography in NaCl-treated corneal epithelial cells; assay type: cell-based, rabbit; conditions: PDSP pretreatment 20 hours, then hyperosmotic medium (463 mOsM) 24 hours
# Method: Limbal stem cells were isolated from 6-month-old New Zealand white rabbits and continuously cultivated for 14 days by DMEM/F-12 basal medium based cell-suspension culture to achieve corneal-liked epithelial cell differentiation as previously described (Ho et al., 2013). To induce ROS or MMP-9 activity caused by hyperosmotic stress, cells were incubated overnight in hypertonic media (463 mOsm) achieved by addition of 90 mM NaCl. Cells cultured in DMEM/F-12 basal medium (309 mOsm) was used as negative control. To detect the preventive effect on hyperosmotic stress-induced ROS or MMP-9 activity, cells were pretreated with 10 μM PDSP for 20 hours before the treatment of NaCl.
# To detect MMP-9 activity, 10 μL of culture medium was used to perform gelatin zymography as previous described method (Li et al., 2004). The band intensity was evaluated in zymography with a model GS-700 imaging densitometer (Bio-Rad Laboratories, Hercules, Calif.) and analyzed using Labworks 4.0 software.
# To investigate the effect of PDSP on hyperosmotic stress-induced MMP-9 expression in corneal epithelial cells, cells were pretreated with the PDSP or control peptide (ConP) for 20 hours and then exposed the cells to hyperosmotic medium (463 mOsM) for another 24 hours. […] However, the PDSP pretreatment repressed the MMP-9 mRNA expression by a factor of 2-fold.
# [1] = tested on: desiccating stress-induced dry eye; experiment: Tear production by phenol red thread test in CEC dry eye mice; assay type: in vivo, C57BL/6 mice; conditions: CEC 14 days
# Method: Dry eye was induced by placing mice in a controlled environment chamber (CEC) as previously described (Barabino et al., 2005). Briefly, mice placed in the CEC were exposed to a relative humidity (RH)<25%, temperature of 20 to 22° C., and airflow of 15 L/min, 12 hours per day. Non-stressed (NS) mice without stress-induced dry eye were kept in a normal environment (RH >50%, no air flow, temperature of 21-23° C.) for the same duration. Corneal fluorescein staining and
# Tear production was measured with phenol red-impregnated cotton threads (Zone-Quick; Oasis, Glendora, CA). The validity of this test in mice was performed as previously described (Dursun et al., 2002). The threads were held with jeweler forceps and placed in the lateral canthus for 60 seconds. The tear production is expressed in millimeters of thread that is wet by the tear and turned red.
# To determine whether PDSP have therapeutic effects in a desiccating stress (DS)-induced ocular surface defects, mice were housed at controlled environment chamber (CEC) for 14 days to create ocular surface disruption. After 14 days in CEC, we used mice with fluorescence scores that are above 2 for the first experiments (FIG. 1A). […]
# MMP-9 mRNA = MMP-9 mRNA by quantitative real-time PCR in NaCl-treated corneal epithelial cells; assay type: cell-based, rabbit
# Method: Therefore, we also examined the effects of PDSP on the MMP-9 mRNA expression and activity in NaCl-treated rabbit corneal epithelial cells. Briefly, rabbit corneal epithelial cells were treated as described above. […] Hyperosmotic stress induced a substantial (about 2-fold) increase in MMP-9 mRNA level (Negative control peptide, ConP, followed by NaCl treatment). […] The increases in MMP-9 mRNA levels substantially correlate with the expression of the MMP-9 protein as measured with SDS-gel and enzymatic activities, as shown in FIG. 7(B).
# The total RNA was extracted from cells using TRIzol (Invitrogen) and treated with RNase free DNase I (Qiagen, Santa Clarita, CA) to remove genomic DNA and then purified with an RNA purification kit (Dynabeads; Invitrogen). Synthesis of cDNA was performed by Superscript III (Invitrogen). Quantitative real-time PCR was performed in a GeneAmp 7700 sequence detection system (Applied Biosystems, Foster City, CA). […] All determinations were measured in triplicate. The cycle threshold (Ct) values corresponded to the PCR cycle number at which fluorescence emission in real time reaches a threshold above the base-line emission were analyzed using GeneAmp 7700 SDS software. The Ct value of the PCR product of interest and a control mRNA (GAPDH) were then used to calculate relative quantities of mRNA between samples. […]
substance,measurement,setting,value
"PDSP: 29mer, residues 93-121 of human PEDF: SLGAEQRTESIIHRALYYDLISSPDIHGT (SEQ ID NO:4) (listed as Homo sapiens)",repression of MMP-9 activity (gelatin zymography),MMP-9 activity,3 fold
same,tear production (cotton thread test),"[1]; then PDSP for 5 days, vehicle 4.5±0.2, day 0 3.8±0.5, non-stressed 5.4±0.4",5±0.3 mm
same,"tear production (phenol red thread), human vs mouse PDSP","[1]; then peptide for 3 days (FIG. 12), listed as human PDSP",capable of restore; also recorded: improved tear productions to the same extent
same,MMP-9 mRNA levels without hyperosmotic stress (peptide alone),"MMP-9 mRNA; PDSP alone, isotonic medium",did not have effect
same,repression of MMP-9 mRNA expression,"MMP-9 mRNA; PDSP pretreatment 20 hours, then hyperosmotic medium (463 mOsM) 24 hours",2 fold
